Numbering of substitutions follows the chain as printed.
How the values were obtained:
(MOUSE)NAT2_R127G = molecular target: T1, (MOUSE)NAT2_R127G (Mus musculus, UniProt P50295, R127G); experiment: Substrate specific N-acetylation profile; assay type: biochemical; settings: (MOUSE)NAT2 R127G; substrate 500 μM; relative to substrate with highest specific activity (100%); mean of 3 ± SD
T1 construct: made in house
T1 sequence (P50295 1-290 R127G): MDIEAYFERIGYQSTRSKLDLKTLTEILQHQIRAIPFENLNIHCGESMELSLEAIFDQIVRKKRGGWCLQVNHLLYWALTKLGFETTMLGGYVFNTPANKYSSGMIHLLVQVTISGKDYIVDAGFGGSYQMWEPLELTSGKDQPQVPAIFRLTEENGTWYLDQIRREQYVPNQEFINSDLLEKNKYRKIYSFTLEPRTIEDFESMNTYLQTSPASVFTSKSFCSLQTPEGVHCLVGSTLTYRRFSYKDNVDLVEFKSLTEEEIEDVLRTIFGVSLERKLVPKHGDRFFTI

(MOUSE)NAT2_F125S = molecular target: T2, (MOUSE)NAT2_F125S (Mus musculus, UniProt P50295, F125S); experiment: Substrate specific N-acetylation profile; assay type: biochemical; settings: for % specific activity values: (MOUSE)NAT2 F125S, substrate 500 μM, relative to substrate with highest specific activity (100%), mean of 3 ± SD
T2 construct: His tag (only implied by Ni-NTA purification) (cleaved yes); made in house; host or cells: E. coli Rosetta(DE3)pLysS
T2 sequence (P50295 1-290 F125S): T1 sequence (P50295 1-290 R127G) with F125S, G127R

[1] = ref [56]–[61], cited from earlier work; for pKaH of acetyl acceptor amine: as summarised in text from Table S1
(MESAU)NAT2*1 = test system: (MESAU)NAT2*1; parameters: method as in PMID 15627487, PMID 18280460; settings: substrate 500 μM, relative to substrate with highest specific activity (100%), mean of 3 ± SD, ref [8], [22]; cited from earlier work
(HUMAN)NAT2*4 = molecular target: T3, (HUMAN)NAT2*4 (Homo sapiens, UniProt P11245); parameters: method as in PMID 15627487, PMID 18280460; settings: substrate 500 μM, relative to substrate with highest specific activity (100%), mean of 3 ± SD, ref [8], [22]; cited from earlier work
T3 construct: made in house
T3 sequence (P11245 1-290): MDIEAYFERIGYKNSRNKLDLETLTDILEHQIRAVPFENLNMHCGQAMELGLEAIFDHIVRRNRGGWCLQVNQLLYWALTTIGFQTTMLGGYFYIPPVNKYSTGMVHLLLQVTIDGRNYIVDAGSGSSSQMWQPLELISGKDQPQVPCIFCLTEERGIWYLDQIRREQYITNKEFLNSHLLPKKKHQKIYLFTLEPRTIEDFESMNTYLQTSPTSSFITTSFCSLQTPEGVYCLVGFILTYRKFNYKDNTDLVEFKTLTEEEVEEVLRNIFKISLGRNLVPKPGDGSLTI

(MOUSE)NAT1*1 = molecular target: T4, (MOUSE)NAT1*1 (Mus musculus, UniProt P50294); experiment: Substrate specific N-acetylation profile; assay type: biochemical; settings: for % specific activity values: substrate 500 μM, relative to substrate with highest specific activity (100%), mean of 3 ± SD
T4 construct: The open reading frame of (MOUSE)Nat1*1 [32] was subcloned; hexa-His (N, cleaved yes); made in house; host or cells: Escherichia coli BL21(DE3)CodonPlus-RIL
T4 sequence (P50294 1-290): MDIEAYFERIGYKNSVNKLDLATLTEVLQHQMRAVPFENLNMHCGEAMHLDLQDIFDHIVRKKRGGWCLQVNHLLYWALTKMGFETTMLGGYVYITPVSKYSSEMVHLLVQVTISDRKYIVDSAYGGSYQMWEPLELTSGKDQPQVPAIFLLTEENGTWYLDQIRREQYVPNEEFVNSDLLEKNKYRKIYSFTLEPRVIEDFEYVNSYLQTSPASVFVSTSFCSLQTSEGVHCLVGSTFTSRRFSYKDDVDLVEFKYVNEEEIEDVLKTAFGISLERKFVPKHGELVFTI

(MOUSE)NAT2*1 = molecular target: T5, (MOUSE)NAT2*1 (Mus musculus, UniProt P50295); experiment: Substrate specific N-acetylation profile; assay type: biochemical; settings: for % specific activity values: substrate 500 μM, relative to substrate with highest specific activity (100%), mean of 3 ± SD
T5 construct: made in house
T5 sequence (P50295 1-290): T1 sequence (P50295 1-290 R127G) with G127R

(HUMAN)NAT1*4 = test system: (HUMAN)NAT1*4; parameters: method as in PMID 15627487, PMID 18280460; settings: substrate 500 μM, relative to substrate with highest specific activity (100%), mean of 3 ± SD, ref [8], [22]; cited from earlier work
(MOUSE)NAT2_R127L = molecular target: T6, (MOUSE)NAT2_R127L (Mus musculus, UniProt P50295, R127L); experiment: Substrate specific N-acetylation profile; assay type: biochemical; settings: for % specific activity values: (MOUSE)NAT2 R127L, substrate 500 μM, relative to substrate with highest specific activity (100%), mean of 3 ± SD
T6 construct: made in house
T6 sequence (P50295 1-290 R127L): T1 sequence (P50295 1-290 R127G) with G127L

SMILES | % specific activity values ((MOUSE)NAT2_R127G) [%] | % specific activity values ((MOUSE)NAT2_F125S) [%] | pKa(H) (NH3^+) [1] | % specific activity values ((MESAU)NAT2*1) [%] | % specific activity values ((HUMAN)NAT2*4) [%] | % specific activity values ((MOUSE)NAT1*1) [%] | % specific activity values ((MOUSE)NAT2*1) [%] | % specific activity values ((HUMAN)NAT1*4) [%] | % specific activity values ((MOUSE)NAT2_R127L) [%] | also measured
Nc1ccc(Cl)cc1 [4CA, 4-chloroaniline] | 54 ± 3 | 56 ± 2 | 3.8 (NH3^+) | 61 ± 2 | 71 ± 3 | 18 ± 3 | 46 ± 4 | 36 ± 2 | 70 ± 1 | 
Nc1ccc(Br)cc1 [4BA, 4-bromoaniline] | 70 ± 1 | 47 ± 2 | 3.4 (NH3^+) | 72 ± 1 | 72 ± 1 | 28 ± 6 | 52 ± 2 | 50 ± 1 | 81 ± 11 | 
COc1ccc(N)cc1OC [4AV, 4-aminoveratrole] | 66 ± 3 | 90 ± 1 | 4.7 (NH3^+) | 32 ± 1 | 57 ± 3 | 28 ± 6 | 90 ± 1 | 25 ± 2 | 100 ± 10 | Maximal specific activity ((MOUSE)NAT2_R127L; (MOUSE)NAT2_R127L, best substrate, 500 μM): 82.5 µM/s/mg
Nc1ccc(O)c(C(=O)O)c1 [5AS, 5-aminosalicylate] | 94 ± 1 | 74 ± 1 |  | 30 ± 1 | 64 ± 2 | 76 ± 6 | 37 ± 1 | 64 ± 3 | 65 ± 9 | 
COc1ccc(N)cc1 [ANS, 4-methoxyaniline] | 97 ± 4 | 100 ± 3 | 5.2 (NH3^+) | 89 ± 1 | 9 ± 2 | 48 ± 1 | 88 ± 6 | 56 ± 2 | 77 ± 10 | Maximal specific activity ((MOUSE)NAT2_F125S; (MOUSE)NAT2_F125S, best substrate, 500 μM): 25 µM/s/mg
Cc1cc(C)nc(NS(=O)(=O)c2ccc(N)cc2)n1 [SMZ, sulfamethazine] | 19 ± 2 | 1 ± 1 | 2.4 | 1 ± 1 | 46 ± 1 | 88 ± 6 | 4 ± 1 | 1 ± 1 | 3 ± 1 | pKa(H) (sulfonamide) [1]: 7.4
Nc1ccc(C(=O)O)c(O)c1 [4AS, 4-aminosalicylate] | 27 ± 1 | 75 ± 3 | 2.3 | 74 ± 3 | 7 ± 1 | 88 ± 6 | 55 ± 1 | 67 ± 2 | 13 ± 1 | pKaH of acetyl acceptor amine [1]: < 3; pKa(H) (COOH) [1]: 6.0; pKa(H) (OH) [1]: 13.2
Nc1ccc(Oc2ccccc2)cc1 [POA, 4-phenoxyaniline] | 67 ± 1 | 62 ± 2 | 4.36 (NH3^+) | 22 ± 1 | 62 ± 11 | 6 ± 1 | 20 ± 2 | 17 ± 7 | 61 ± 2 | 
Nc1ccc(C(=O)N[C@@H](CCC(=O)O)C(=O)O)cc1 [4ABglu, 4-aminobenzoyl glutamate] | 9 ± 1 | 19 ± 1 | 2.7 | 57 ± 3 | 3 ± 1 | 8 ± 7 | 87 ± 1 | 20 ± 1 | 8 ± 1 | pKaH of acetyl acceptor amine [1]: < 3; pKa(H) (α-COOH) [1]: 3.6; pKa(H) (γ-COOH) [1]: 4.7
CCCCCCOc1ccc(N)cc1 [HOA, 4-hexyloxyaniline] | 59 ± 3 | 47 ± 1 | 5.1 (NH3^+) | 35 ± 1 | 51 ± 2 | 3 ± 4 | 23 ± 2 | 12 ± 4 | 80 ± 8 | 
NNC(=O)c1ccncc1 [INH, isoniazid] | 63 ± 10 | 38 ± 2 |  | 1 ± 1 | 62 ± 2 | 100 ± 6 | 2 ± 2 | 0 ± 2 | 76 ± 14 | pKa(H) (NH2^+-NH3^+) [1]: 2.0; pKa(H) (NH-NH3^+) [1]: 3.9; pKa(H) (pyridine) [1]: 10.8; Maximal specific activity ((MOUSE)NAT1*1; best substrate, 500 μM): 104 µM/s/mg
NNc1nncc2ccccc12 [HDZ, hydralazine] | 100 ± 2 | 19 ± 1 |  | 3 ± 1 | 100 ± 1 | 68 ± 6 | 8 ± 2 | 2 ± 1 | 95 ± 1 | 
Nc1ccc(C(=O)O)cc1 [4ABA, 4-aminobenzoic acid] | 8 ± 1 | 70 ± 2 | 2.4 | 100 ± 6 | 6 ± 1 | 48 ± 6 | 100 ± 2 | 100 ± 2 | 8 ± 1 | pKaH of acetyl acceptor amine [1]: < 3; pKa(H) (COOH) [1]: 4.9; Maximal specific activity ((MOUSE)NAT2*1; best substrate, 500 μM): 196 µM/s/mg
